pIC50: −log10 of the molar value.
Tested on: pERK in DLD1 cells
Test: ERK phosphorylation assay after EGF stimulation
Type: cell-based
Conditions: Homo sapiens, DLD-1, compound 2 h, 200 ng/ml hEGF 5 minutes, alphascreen pERK, read-out: ERK phosphorylation inhibition IC50
Description: Example-128: ERK Phosphorylation Assay Protocol
Compounds were tested for their ability to inhibit pERK after EGF stimulation in DLD1 cells. Cells were seeded at 0.2 million cells per well in 96 well cell binding tissue culture plate in 100 μL complete media and were allowed to settle overnight (16 to 20 h). On the following day, cells were treated with various concentrations of test compounds for 2 h followed by stimulation with 200 ng/ml hEGF (diluted in PBS) for 5 minutes. Cells were then washed once with PBS and lysed in freshly prepared lysis buffer (provided with alphascreen surefire ERK1/2 p-T202/Y204 assay kit, cat no: TGRESB10K, Perkin Elmer). Lysis was carried out in plate shaker for 10-15 mins. Lysate was transferred to […] white opti-plate (Perkin Elmer) and alphascreen for pERK was carried out as per manufacturer's instructions. Plate was read after 2 h incubation in plate shaker at […] 300 RPM, 25-28° C.

| pIC50 | Compound |
| --- | --- |
| 6.30 to 6.70 | Cc1nc(N[C@H](C)c2cccc(C(F)(F)C(C)(C)O)c2F)c2cc(-c3ccc(=O)n(C)c3)c3c(c2n1)N(C)C(=O)C(C)(C)O3 [Compound 122, (R)-4-((1-(3-(1,1-difluoro-2-hydroxy-2-methylpropyl)-2-fluorophenyl)ethyl)amino)-2,8,8,10-tetramethyl-6-(1-methyl-6-oxo-1,6-dihydropyridin-3-yl)-8H-[1,4]oxazino[2,3-h]quinazolin-9(10H)-one] |
| 6.30 to 6.70 | Cc1nc(N[C@H](C)c2cc(N)cc(C(F)(F)F)c2)c2cc(C3CCC(=O)CC3)c3c(c2n1)CCC3 [Compound 124, (R)-4-(4-((1-(3-amino-5-(trifluoromethyl)phenyl)ethyl)amino)-2-methyl-8,9-dihydro-7H-cyclopenta[h]quinazolin-6-yl)cyclohexan-1-one] |
| 6.30 to 6.70 | Cc1nc(N[C@H](C)c2cc(N)cc(C(F)(F)F)c2)c2cc(C3CCOCC3)c3c(c2n1)CCC3 [Compound 104, (R)—N-(1-(3-amino-5-(trifluoromethyl)phenyl)ethyl)-2-methyl-6-(tetrahydro-2H-pyran-4-yl)-8,9-dihydro-7H-cyclopenta[h]quinazolin-4-amine] |
| 6.30 to 6.70 | Cc1nc(N[C@H](C)c2cc(N)cc(C(F)(F)F)c2)c2cc(C3CCN(C(=O)C4CC4)CC3)c3c(c2n1)CCC3 [Compound 100, (R)-(4-(4-((1-(3-amino-5-(trifluoromethyl)phenyl)ethyl)amino)-2-methyl-8,9-dihydro-7H-cyclopenta[h]quinazolin-6-yl)piperidin-1-yl)(cyclopropyl)methanone] |
| 6.70 to 9.00 | Cc1nc(NC(C)c2cccc(C(F)(F)F)c2F)c2cc(N3CC4(COC4)C3)c3c(c2n1)CCC3 (single isomer, unassigned) [Compound 34, N-(1-(2-fluoro-3-(trifluoromethyl)phenyl)ethyl)-2-methyl-6-(2-oxa-6-azaspiro[3.3]heptan-6-yl)-8,9-dihydro-7H-cyclopenta[h]quinazolin-4-amine] |
| 6.70 to 9.00 | Cc1nc(N[C@H](C)c2cccc(C(F)(F)CO)c2F)c2cc(N3CCO[C@@H](CO)C3)c3c(c2n1)CCC3 [Compound 86, 2,2-difluoro-2-(2-fluoro-3-((R)-1-((6-((R)-2-(hydroxymethyl)morpholino)-2-methyl-8,9-dihydro-7H-cyclopenta[h]quinazolin-4-yl)amino)ethyl)phenyl)ethan-1-ol] |
| 6.30 to 6.70 | Cc1nc(N[C@H](C)c2cccc(C(F)(F)C(C)(C)O)c2F)c2cc(N3CC[C@](C)(O)C3)c3c(c2n1)CCC3 (single isomer, unassigned) [Compound 61b] |
| 6.70 to 9.00 | Cc1nc(NC(C)c2cc(N)cc(C(F)F)c2)c2cc(N3CC4(COC4)C3)c3c(c2n1)CC(C)(C)O3 (racemic) [Compound 116, (R/S)—N-(1-(3-amino-5-(difluoromethyl)phenyl)ethyl)-2,8,8-trimethyl-6-(2-oxa-6-azaspiro[3.3]heptan-6-yl)-8,9-dihydrofuro[2,3-h]quinazolin-4-amine] |
| 6.30 to 6.70 | Cc1nc(N[C@H](C)c2cccc(C(F)(F)C(C)(C)O)c2F)c2cc(N3CCOCC3=O)c3c(c2n1)CCC3 [Compound 123, (R)-4-(4-((1-(3-(1,1-difluoro-2-hydroxy-2-methylpropyl)-2-fluorophenyl)ethyl)amino)-2-methyl-8,9-dihydro-7H-cyclopenta[h]quinazolin-6-yl)morpholin-3-one] |
| 6.70 to 9.00 | Cc1nc(N[C@H](C)c2cccc(C(F)(F)C(C)(C)O)c2F)c2cc(N3CCNC(=O)C3)c3c(c2n1)CCC3 [Compound 66, (R)-4-(4-((1-(3-(1,1-difluoro-2-hydroxy-2-methylpropyl)-2-fluorophenyl)ethyl)amino)-2-methyl-8,9-dihydro-7H-cyclopenta[h]quinazolin-6-yl)piperazin-2-one] |
| 6.70 to 9.00 | Cc1nc(N[C@H](C)c2cccc(C(F)(F)CO)c2F)c2cc(N3CC[C@](C)(O)C3)c3c(c2n1)CCC3 (single isomer, unassigned) [Compound 67a] |
| 6.30 to 6.70 | Cc1nc(NC(C)c2cccc(C(C)(C)CO)c2)c2cc(N3CC4(COC4)C3)c3c(c2n1)CCC3 (single isomer, unassigned) [Compound 6, 2-methyl-2-(3-(1-((2-methyl-6-(2-oxa-6-azaspiro[3.3]heptan-6-yl)-8,9-dihydro-7H-cyclopenta[h]quinazolin-4-yl)amino)ethyl)phenyl)propan-1-ol] |
| 6.30 to 6.70 | Cc1cc(N)cc(C(C)Nc2nc(C)nc3c4c(c(N5CCOCC5)cc23)CCC4)c1 (single isomer, unassigned) [Compound 80, N-(1-(3-amino-5-methylphenyl)ethyl)-2-methyl-6-morpholino-8,9-dihydro-7H-cyclopenta[h]quinazolin-4-amine] |
| 6.70 to 9.00 | Cc1nc(N[C@H](C)c2cc(N)cc(C(F)(F)F)c2)c2cc(N3CCC4(CCCO4)CC3)c3c(c2n1)CCC3 [Compound 13, (R)—N-(1-(3-amino-5-(trifluoromethyl)phenyl)ethyl)-2-methyl-6-(1-oxa-8-azaspiro[4.5]decan-8-yl)-8,9-dihydro-7H-cyclopenta[h]quinazolin-4-amine] |
| 6.70 to 9.00 | Cc1nc(N[C@H](C)c2cc(N)cc(C(F)(F)F)c2)c2cc(O[C@H]3CCOC3)c3c(c2n1)CC(C)O3 (mixture of isomers) [Compound 118a, (R/S)—N—((R)-1-(3-amino-5-(trifluoromethyl)phenyl)ethyl)-2,8-dimethyl-6-(((S)-tetrahydrofuran-3-yl)oxy)-8,9-dihydrofuro[2,3-h]quinazolin-4-amine] |
| 6.70 to 9.00 | Cc1nc(N[C@H](C)c2cccc(C(F)(F)CCO)c2F)c2cc(N3CC4(COC4)C3)c3c(c2n1)CCC3 [Compound 70, (R)-3,3-difluoro-3-(2-fluoro-3-(1-((2-methyl-6-(2-oxa-6-azaspiro[3.3]heptan-6-yl)-8,9-dihydro-7H-cyclopenta[h]quinazolin-4-yl)amino)ethyl)phenyl) propan-1-ol] |
| 6.30 to 6.70 | COC[C@@H]1CN(c2cc3c(N[C@H](C)c4cc(N)cc(C(F)(F)F)c4)nc(C)nc3c3c2CCC3)CCO1 [Compound 32, N—((R)-1-(3-amino-5-(trifluoromethyl)phenyl)ethyl)-6-((S)-2-(methoxymethyl)morpholino)-2-methyl-8,9-dihydro-7H-cyclopenta[h]quinazolin-4-amine] |
| 6.30 to 6.70 | Cc1nc(NC(C)c2cccc(C(=O)C(F)(F)F)c2)c2cc(N3CCOCC3)c3c(c2n1)CCC3 (racemic) [Compound 120, (R/S)-2,2,2-trifluoro-1-(3-(1-((2-methyl-6-morpholino-8,9-dihydro-7H-cyclopenta[h]quinazolin-4-yl)amino)ethyl)phenyl)ethan-1-one] |
| 6.70 to 9.00 | Cc1nc(N[C@H](C)c2cc(N)cc(C(F)(F)F)c2)c2cc(C3CCC(O)CC3)c3c(c2n1)CCC3 (stereo partly drawn) [Compound 125, (R)-4-(4-((1-(3-amino-5-(trifluoromethyl)phenyl)ethyl)amino)-2-methyl-8,9-dihydro-7H-cyclopenta[h]quinazolin-6-yl)cyclohexan-1-ol] |
| 6.30 to 6.70 | COCC1CN(c2cc3c(N[C@H](C)c4cccc(C(F)(F)CO)c4F)nc(C)nc3c3c2CCC3)C1 [Compound 9, (R)-2,2-difluoro-2-(2-fluoro-3-(1-((6-(3-(methoxymethyl)azetidin-1-yl)-2-methyl-8,9-dihydro-7H-cyclopenta[h]quinazolin-4-yl)amino)ethyl)phenyl)ethan-1-ol] |
| 6.70 to 9.00 | CC(=O)N1CCC(c2cc3c(N[C@H](C)c4cc(N)cc(C(F)(F)F)c4)nc(C)nc3c3c2CCC3)CC1 [Compound 102, (R)-1-(4-(4-((1-(3-amino-5-(trifluoromethyl)phenyl)ethyl)amino)-2-methyl-8,9-dihydro-7H-cyclopenta[h]quinazolin-6-yl)piperidin-1-yl)ethan-1-one] |
| 6.70 to 9.00 | COC[C@H]1CN(c2cc3c(NC(C)c4cccc(C(F)(F)CO)c4C)nc(C)nc3c3c2CCC3)CCO1 (single isomer, unassigned) [Compound 42] |
| 6.70 to 9.00 | Cc1nc(NC(C)c2cccc(C(F)(F)CO)c2C)c2cc(N3CC4(COC4)C3)c3c(c2n1)CCC3 (single isomer, unassigned) [Compound 41, 2,2-difluoro-2-(2-methyl-3-(1-((2-methyl-6-(2-oxa-6-azaspiro[3.3]heptan-6-yl)-8,9-dihydro-7H-cyclopenta[h]quinazolin-4-yl)amino)ethyl)phenyl)ethan-1-ol] |
| 6.70 to 9.00 | CC(=O)N1CCC(c2cc3c(N[C@H](C)c4cc(N)cc(C(F)(F)F)c4)nc(C)nc3c3c2CCCC3)CC1 [Compound 105, (R)-1-(4-(4-((1-(3-amino-5-(trifluoromethyl)phenyl)ethyl)amino)-2-methyl-7,8,9,10-tetrahydrobenzo[h]quinazolin-6-yl)piperidin-1-yl)ethan-1-one] |
| 6.70 to 9.00 | CC(=O)N1CC=C(c2cc3c(N[C@H](C)c4cc(N)cc(C(F)(F)F)c4)nc(C)nc3c3c2CCC3)CC1 [Compound 90, (R)-1-(4-(4-((1-(3-amino-5-(trifluoromethyl)phenyl)ethyl)amino)-2-methyl-8,9-dihydro-7H-cyclopenta[h]quinazolin-6-yl)-3,6-dihydropyridin-1(2H)-yl)ethan-1-one] |
